{
  "source": "patent US20210038669A1",
  "about": "“Composition(s) for Topically Treating Pain” (priority 2016, published 2021)",
  "origin": "cited, not measured here",
  "system": "neuropathic pain conditions (postherpetic neuralgia, trigeminal, postsurgical or post-traumatic neuralgia)",
  "details": "5% patch, 5% cream, 5% gel, 8% spray; all but one study; third tier (very low quality) evidence",
  "data": [
    {"smiles": "CCN(CC)CC(=O)Nc1c(C)cccc1C", "note": "[lidocaine, Lidocaine]", "values": [
      {"measurement": "pain relief versus placebo", "result": "better than placebo"}
    ]}
  ]
}
